Data set [1] concerns Arterial blood pressure (ABP). Put plainly: In vivo hypotensive activity, arterial blood pressure (ABP) in anesthetized guinea pig. To be noted: arterial blood pressure lowering (ED20, 20% reduction). The protocol: Pharmac., 21, 379 (1969). The trachea of anesthetized guinea pig was cannulated and the ITP recorded on a polygraph under artificial ventilation. Arterial blood pressure (ABP; measure of hypotensive activity) was also measured during the experiment. Data was obtained for both intravenous and intraduodenal administration.

Data set [2] has as its system arterial blood pressure / intratracheal pressure. Put plainly: Separation of bronchodilator and cardiovascular effects, ratio of hypotensive ED20 / bronchodilating ED50. The class given is in vivo, guinea pig. On the procedure: The trachea of anesthetized guinea pig was cannulated and the ITP recorded on a polygraph under artificial ventilation. Arterial blood pressure (ABP; measure of hypotensive activity) was also measured during the experiment. Data was obtained for both intravenous and intraduodenal administration.
To assess the separation of desirable bronchodilator activity from undesirable cardiovascular (hypotensive) effect in the test compounds, the ratio of hypotensive ED20 /bronchodilating ED50 was calculated and indicated in Table 1.

A further data set deals with platelet aggregation. The conditions noted are these: in words; Chem Pharm. Bull., 25(7), 1811-1821 (1977); cited from earlier work.
The conditions of data set [3]: in words; cited from earlier work.
For data set [4] the following is noted: in words; known disadvantages; cited from earlier work.

For the compound `CCCCCCOc1nc(N)c2ncn(C3C=CCCC3)c2n1` (stereo not shown) [n-C6 H13 O], in data set [1] (Intravenous), the “ABP lowering, ED20 (20% reduction)” value was 2.7 mg/kg.
`Nc1nc(Cl)nc2c1ncn2C1C=CCCC1` (stereo not shown) [Cl]: the “ABP lowering, ED20 (20% reduction)” value in data set [1] (Intravenous) worked out at 2.5 mg/kg. The ABP/ITP in data set [2] (Intravenous) is 17.
Consider `CCCOc1nc(N)c2ncn(C3CCCCC3)c2n1` [n-C3 H7 O], for which the entries for the “ABP lowering, ED20 (20% reduction)” value in data set [1] (Intraduodenal) and in data set [1] (Intravenous) were 18 mg/kg and 4.4 mg/kg, respectively. The ABP/ITP in data set [2] (Intraduodenal) was found to be 15; in data set [2] (Intravenous), 12.
For the compound `CC(C)COc1nc(N)c2ncn(C3C=CCCC3)c2n1` (stereo not shown) [iso-C4 H9 O], the “ABP lowering, ED20 (20% reduction)” value in data set [1] (Intravenous) turned out to be 2.4 mg/kg.
As for `CCCCCCOc1nc(N)c2ncn(C3CCCCC3)c2n1` [n-C6 H13 O], in data set [1] (Intravenous), the “ABP lowering, ED20 (20% reduction)” value was more than 3 mg/kg.
On the same count and under the same terms, the figure for `CCCCCOc1nc(N)c2ncn(C3CCCCC3)c2n1` [n-C5 H11 O] is more than 3 mg/kg.
As to `CCCOc1nc(N)c2ncn(C3C=CCCC3)c2n1` (stereo not shown) [n-C3 H7 O], the entries for the “ABP lowering, ED20 (20% reduction)” value in data set [1] (Intraduodenal) and in data set [1] (Intravenous) were 2.4 mg/kg and 2.0 mg/kg, respectively. In addition, the figures for the ABP/ITP in data set [2] (Intraduodenal) and in data set [2] (Intravenous) were 2.0 and 5.9, respectively.
The like results for `CCOc1nc(N)c2ncn(C3C=CCCC3)c2n1` (stereo not shown) [C2 H5 O] were, in that order, 12 mg/kg, 4.0 mg/kg, 19 and 12.
Take `CCCCOc1nc(N)c2ncn(C3C=CCCC3)c2n1` (stereo not shown) [n-C4 H9 O]: in data set [1] (Intravenous), the “ABP lowering, ED20 (20% reduction)” value is more than 3 mg/kg. Moreover, in data set [2] (Intravenous), the ABP/ITP was more than 4.8.
Regarding `CCCCCOc1nc(N)c2ncn(C3C=CCCC3)c2n1` (stereo not shown) [n-C5 H11 O], in data set [1] (Intravenous), the “ABP lowering, ED20 (20% reduction)” value was more than 3 mg/kg.
Take `CCCCOc1nc(N)c2ncn(C3CCCCC3)c2n1` [n-C4 H9 O]: the “ABP lowering, ED20 (20% reduction)” value was found to be 8.3 mg/kg in data set [1] (Intraduodenal) and 4.4 mg/kg in data set [1] (Intravenous). Besides, the ABP/ITP in data set [2] (Intraduodenal) is reported as 5.9; in data set [2] (Intravenous), 1467.
For the compound `CC(C)COc1nc(N)c2ncn(C3CCCCC3)c2n1` [iso-C4 H9 O], in data set [1] (Intravenous), the “ABP lowering, ED20 (20% reduction)” value was more than 3 mg/kg.
In the case of `Nc1nc(SC2CCCC2)nc2c1ncn2C1CCCC1`, the platelet aggregation inhibition result with platelet aggregation is recorded as “slightly effective”.
In the case of `CCOc1nc(N)c2ncn(C3CCCCC3)c2n1` [C2 H5 O], in data set [1] (Intravenous), the “ABP lowering, ED20 (20% reduction)” value came out at 2.5 mg/kg. For the same compound, the ABP/ITP in data set [2] (Intravenous) was determined as 6.8.
With `Cn1c(=O)c2[nH]cnc2n(C)c1=O` [aminophylline], the solubility entry in data set [3] was “readily soluble”. For the same compound, in data set [4], the side effects entry is “gastric irritation and cardiovascular and central nervous system side effects”.

Source of the values: patent publication US4201860A, “Purine derivatives” (Bristol-Myers Company, priority 1979, dated 1980).
